Patent US7264314B2, “Adrenocorticotropic hormone analogs and related methods” (priority 2004, dated 2007)

Tests used:
[1] = tested on: serum corticosterone in dexamethasone-suppressed mice; assay: in vivo Serum Corticosteroid Induction Assay; design: species or system FVB/N mice; conditions: for Percent reduction in serum corticosteroid: compared to unmodified mACTH(1–24), 1 μg s.c., blood one hour after administration
Experimental: An in vivo Serum Corticosteroid Induction Assay measures the level of corticosteroid or corticosterone in the blood stream of a subject. More specifically, the in vivo Serum Corticosteroid Induction Assay can include the following steps: first, an agent to suppress endogenous ACTH production was administered to a mouse subject, such as an intraperitoneal injection of dexamethasone; second, after waiting a suitable period of time for suppression of endogenous ACTH production (e.g., 1.5–2.0 hours), a test compound can be administered to the mouse by a suitable method, such as intraperitoneal or subcutaneous injection; and third, after waiting a suitable period of time (e.g., 1 hour) for action of the injected test compound, a blood sample can be taken from the subject and the level of serum corticosterone can be determined by a suitable method, such as a competitive radioimmunoassay using ^125I RIA kit (ICN, Costa Mesa, Calif.). Example 1 describes a murine in vivo Serum Corticosteroid Induction Assay in detail.
The corticosteroid or corticosterone secretion induced in vivo by an ACTH analog compound was compared to the level of corticosteroid secretion produced by an unmodified ACTH compound by measuring blood serum corticosteroid after administering either the ACTH or ACTH analog as test compounds. […] ACTH analog compositions with decreased function were identified by measuring corticosterone levels using standard radioimmunoassay (RIA) analysis on blood samples collected one hour after administering the mACTH(1–24) or ACTH analog compound to dexamethasone-suppressed mice. In FIG. 1, the potency of various ACTH analog peptides is expressed as per cent induction of corticosterone, with mouse ACTH being 100%. […] The percent of corticosterone induction 12 of ACTH analog Compounds in Samples 2–10 are shown as a percentage of the concentration of serum corticosterone 20 measured for unmodified mACTH(1–24) in the in vivo Serum Corticosteroid Adrenal Induction Assay. The structural modifications and measured percentage reduction in serum measured for Samples 2–10 in FIG. 1 are shown in Table 3 below.
The in vivo Serum Corticosteroid Induction Assay was performed according the following method. First, two to three month-old male FVB/N mice from our colony, five per group, were injected intraperitoneally with dexamethasone (0.4 mg/0.1 ml PBS per mouse; Sigma, St. Louis, Mo.) to suppress their endogenous ACTH production. See Hajos, G T et al., “Studies of the potency of polypeptides with ACTH action by a new method based on continuous measurement of plasma corticosterone,” Steroids Lipids Res 3:225–228 (1972), Costa, J L, et al., “Mutational analysis of evolutionarily conserved ACTH residues,” Gen Comp Endocrinol, 136:12–16 (2004), and Karpac, J, et al., “Development, Maintenance, and Function of the Adrenal Gland in Early Postnatal Pro-opiomelanocortin Null Mutant Mice,” Endocrinology (2005), published online ahead of print Feb. 24, 2005, all of which are incorporated herein by reference.
Second, ninety to one hundred twenty minutes later, the dexamethasone-suppressed mice were injected subcutaneously between the shoulder blades with either unmodified mACTH(1–24) or one of several ACTH analog peptide compounds (1 μg/0.1 mL PBS/0.5% BSA), or with vehicle alone (control) (0.1 mL PBS/0.5% BSA). The following ACTH analog peptide compounds were administered to separate mice: 1: murine ACTH1–24; 2: V26F,E30K; 3: P19W,K21E,Y23R; 4: E30K,P36R; 5: ALA19–24; 6: V26F,P36R; 7: P19W, K21E; 8: P19W,K21A,delY23; 9: P19W,K21A; 10: KRRP16-19RMW (AT814) (SEQ ID NO:20).
Third, one hour later, blood was collected within less than 1 minute from a small incision in the tail, and serum was flash-frozen and stored at −80° C. until assayed. Serum corticosterone was determined by competitive radioimmunoassay (^125I RIA kit; ICN, Costa Mesa, Calif.) according to the manufacturer's recommendations. One microliter of serum was used per assay sample. […]

[2] = tested on: corticosterone production by explanted mouse adrenal halves; assay: in vitro Serum-free Adrenal Inhibition Assay; assay type: cell-based; conditions: in vivo by Example 1, in vitro by Example 4
Experimental: A series of separate in vitro Serum-Free Adrenal Corticosteroid Inhibition Assay were performed to identify ACTH analogs that inhibit ACTH-induced adrenal hormone production in vitro. The concentration of corticosterone was measured according to the procedure of Example 4 in a serum-free culture medium containing explanted adrenal membrane and unmodified ACTH, AT814 ACTH analog (SEQ ID NO:20), or a combination of ACTH and AT814 at 100 ng/mL each. […] Corticosterone levels were taken at 2.0 hours after the adrenal membrane was placed in the serum free M199 medium, and each corticosterone level in Table 5 is an average of five samples.
The in vitro Serum-free Adrenal Inhibition Assay was performed according the following method. First, adrenals were removed from mice, dissected free of fat, and cut in half. See Costa, J L, et al., “Mutational analysis of evolutionarily conserved ACTH residues,” Gen Comp Endocrinol. 136:12–16 (2004); and Weber, M M, et al., “Postnatal overexpression of insulin-like growth factor II in transgenic mice is associated with adrenocortical hyperplasia and enhanced steroidogenesis,” Endocrinology 140:1537–1543 (1999), incorporated herein by reference.
Second, each adrenal half was placed into an individual well of a 4-well dish, one dish per mouse. Adrenal halves were incubated at 5% CO2, 37° C., in 0.5 ml serum-free medium (M199; Invitrogen) for 30 minutes to equilibrate.
Third, medium was removed and replaced by 0.5 ml M199 containing ACTH, AT814, or both, at 100 ng/ml each; controls had no peptides added.
Fourth, after 2 hours of incubation, the medium was removed, pooled for all four halves from each mouse, and assayed by corticosterone using standard RIA methods. corticosterone was determined by competitive radioimmunoassay (^125I RIA kit; ICN, Costa Mesa, Calif.) according to the manufacturer's recommendations. One microliter of serum was used per assay sample. Samples were run in duplicates.

## (E30K, P36R)mACTH (SYSMEHFRWGKPVGKKRRPVKVYPNVAENKSAEAFRLEF; Corticotropin; UniProt P01193 124-162, looked up, variant E30K P36R) [Sample 4]
[1]
  Percent reduction in serum corticosteroid: 41.5%

## (P19W, K21A)mACTH (SYSMEHFRWGKPVGKKRRWVAVYPNVAENESAEAFPLEF; Corticotropin; UniProt P01193 124-162, looked up, variant P19W K21A) [Sample 9]
[1]
  Percent reduction in serum corticosteroid: 83.4%

## (P19W, K21A, delY23)mACTH (SYSMEHFRWGKPVGKKRRWVAVPNVAENESAEAFPLEF; Corticotropin; UniProt P01193 124-162, looked up, variant P19W K21A Y23*) [Sample 8]
[1]
  Percent reduction in serum corticosteroid: 76.0%

## (P19W, K21E)mACTH (SYSMEHFRWGKPVGKKRRWVEVYPNVAENESAEAFPLEF; Corticotropin; UniProt P01193 124-162, looked up, variant P19W K21E) [Sample 7]
[1]
  Percent reduction in serum corticosteroid: 61.1%

## (P19W, K21E, Y23R)mACTH (SYSMEHFRWGKPVGKKRRWVEVRPNVAENESAEAFPLEF; Corticotropin; UniProt P01193 124-162, looked up, variant P19W K21E Y23R) [Sample 3]
[1]
  Percent reduction in serum corticosteroid: 36.5%

## (PVKVYP19-24AAAAA)mACTH [Sample 5]
[2]
  in vitro activity compared with in vivo activity (FIG. 5): increased serum half life measured in vivo
[1]
  Percent reduction in serum corticosteroid: 51%
[1]; method of Example 1
  in vivo activity in excess of the in vitro activity of unmodified mACTH (FIG. 5): about 50%
  in vivo activity, % corticosterone induction relative to mACTH(1–24) (FIG. 5): greater relative to both mACTH and to other ACTH analogs

## (V26F, E30K)mACTH (SYSMEHFRWGKPVGKKRRPVKVYPNFAENKSAEAFPLEF; Corticotropin; UniProt P01193 124-162, looked up, variant V26F E30K) [Sample 2]
[1]
  Percent reduction in serum corticosteroid: 18.3%

## (V26F, P36R)mACTH (SYSMEHFRWGKPVGKKRRPVKVYPNFAENESAEAFRLEF; Corticotropin; UniProt P01193 124-162, looked up, variant V26F P36R) [Sample 6]
[1]
  Percent reduction in serum corticosteroid: 59.3%
